For one assay, the system named is activated platelets. Put plainly: Annexin V binding after incubation of cells with DIP. Type of assay: cell-based.
Assay [1] in a line: local formation of fibrin in experimental animals after angioplasty. The assay is classed as in vivo.
For assay [2] the following is noted: arterial circulation of the brain, rabbit model; cited from earlier work.
For assay [3] the following is noted: ESPS-2; compared with low-dose aspirin / aspirin alone; cited from earlier work.

Regarding `OCCN(CCO)c1nc(N2CCCCC2)c2nc(N(CCO)CCO)nc(N3CCCCC3)c2n1` [dipyridamole, 2,6-bis(diethanolamino)-4,8-dipiperidino-pyrimido[5,4-d]pyrimidine], the “binding of Annexin V to the surface of activated platelets” value in the assay on activated platelets (activated platelets) is given as “reduce the binding of Annexin V”. In addition, the “Annexin V binding sites” value in the assay with activated platelets (incubation of cells, compared to pre-incubation, patients with anti-platelet therapy resistance (ASA or clopidogrel)) is on record as “significant reduction”. Moreover, the “inhibition of fibrin formation versus full dose heparin” value in assay [1] (experimental animals after angioplasty) was “exceeds the level of inhibition by full dose anticoagulant treatment with heparin”. Moreover, the “local formation of fibrin” value in assay [1] (pretreatment, arterial tree, high flow rate) is given as “reduces the local formation of fibrin significantly”. Also, the thrombus formation result in assay [2] is on record as “reduce thrombus formation”. Also, the “reduction of stroke risk” value in assay [3] is recorded as “as effective as low-dose aspirin”.

The values above are taken from patent publication US20090075949A1, “Use of dipyridamole in combination with antithrombotics for treatment and prevention of thromboembolic diseases” (priority 2004, published 2009).
